According to patent US9757393B2 (priority 2015, dated 2017):

Experiments:
HFD-fed C57BL/6J mice [1] = assay: Hepatic lipid in HFD-fed mice; assay type: in vivo; conditions: oral gavage daily for 4 weeks
Method: (§1) Experimental Animals: the experiments are conducted under the guidelines of the Institutional Animal Care and Use Committee of Central Taiwan University of Science and Technology. As previously described, four-week-old male C57BL/6J mice (n=63) is purchased from the National Laboratory Animal Breeding and Research Center, Ministry of Science and Technology. After 1-week of acclimatization, mice are designed to initiate the study, and the study lasts for 12 weeks. […] The CON group and high-fat control (HF) group are given with vehicle only. The low-fat diet consisted of fat 10%, whereas the high-fat diet (HFD) consisted of fat 45% (of total energy, % kcal). The compositions of the experimental diets are shown as described. At the end of the study, food is derived from the animals (from 10 p.m. to 10 a.m.). On the next day, the mice are sacrificed, and blood and tissue are collected for analysis. Livers, skeletal muscles, and white adipose tissues (WATs) (including epididymal, mesenteric and retroperitoneal WAT) are excised and weighed, and then immediately stored in a freezer at −80° C. Heparin (30 units/mL) (Sigma) is added to blood samples. Plasma samples are collected by centrifugation at 1600 g for 15 min at 4° C. within 30 min, and plasma is obtained for insulin and leptin level analysis.
Blood Lipid and Hepatic Lipid. Hepatic lipids are extracted as previously described. Liver sample (0.375 g) is homogenized with 1 mL of distilled water for 5 min for the hepatic lipid extraction and analyzed using a triglycerides kit as used for serum lipids.

HFD-fed C57BL/6J mice [2] = assay: Histopathology examination of epididymal WAT and liver tissue; assay type: in vivo; conditions: oral gavage daily for 4 weeks
Method: as §1
A portion of the collected epididymal WAT and liver tissue is fixed with formalin (200 g/kg) neutral buffered solution and embedded in paraffin. Sections (8 μm) are cut and stained with hematoxylin and eosin. A microscope (Leica, DM2500) and Leica Digital camera (DFC-425-C) are used for microscopic examination and images taken, respectively.

HFD-fed C57BL/6J mice [3] = assay: Body weight, food intake and tissue weight in HFD-fed mice; assay type: in vivo; conditions: oral gavage daily for 4 weeks
Method: as §1
Body Weight, Food Intake and Tissue Weight. Throughout the embodiment, body weight and food intake are daily recorded at the same time. Body weight gain is defined as the difference between 1 day and the next day. The pellet food is weighed and placed in a cage food container. After 24 h, the remaining food is weighed and the crumbs are collected as much as possible. Based on the difference between 1 day and the next day, the daily food intake is calculated.

HFD-fed C57BL/6J mice [4] = assay: Blood glucose, HbA1c, blood lipids, insulin and leptin levels in HFD-fed mice; assay type: in vivo; conditions: for Blood Profiles FFA / Blood Profiles HDL-C / Blood Profiles HbA1c / Blood Profiles LDL-C: oral gavage daily for 4 weeks
Method: as §1
Blood Glucose and HbA1c Levels. Blood samples (0.8 mL) are collected from the retro-orbital sinuses of fasting mice, and glucose level is measured by the glucose oxidase method (model 1500; Sidekick Glucose Analyzer; YSI Inc., Yellow Springs, Ohio, USA). Percent HbA1c is detected with a Hemoglobin A1c kit (BioSystems S.A., Barcelona, Spain). Plasma triglycerides (TG), total cholesterol (TC), free fatty acids (FFA), high-density lipoprotein cholesterol (HDL-C), and low density lipoprotein cholesterol (LDL-C) are determined using commercial assay kits (Triglycerides-E test, Cholesterol-E test, and FFA-C test, Wako Pure Chemical, Osaka, Japan; HDL-C-test and LDL-C-test, Roche Diagnostics GmbH, Indianapolis, USA) according to their instructions. A mouse insulin ELISA kit (Sibayagi, Gunma, Japan) and mouse leptin ELISA kit (Morinaga, Yokohama, Japan) are used to measure blood insulin and leptin levels, respectively.

membrane GLUT4 = assay: Western blotting of membrane GLUT4 in skeletal muscle; assay type: in vivo, C57BL/6J mice; conditions: HFD-fed mice, 10 mg/kg/day
Method: as §1
Protein extractions and immunoblots for the determination of membrane GLUT4, phospho-AMPK (Thr172), and phospho-Akt (Ser 473) proteins are carried out on frozen skeletal muscle and liver tissue from mice, which follows a previous paper. Additionally, membrane GLUT4 is carried out on frozen skeletal muscle from mice, and the total membrane fractions are collected with buffer and centrifuged as a previously described. The protein contents of membrane GLUT4, phospho-AMPK, phospho-Akt, total AMPK, and total Akt are detected by western blotting. Western blotting has been determined as described elsewhere. Subsequently, antibodies are detected using horseradish peroxidase linked to a goat anti-IgG rabbit secondary antibody and visualized using an ECL system. Membrane GLUT4, structural proteins GAPDH and β-actin are purchased from Santa Cruz Biotechnology (Santa Cruz, Calif., USA); phospho-AMPK was obtained from Abcam Inc. (Cambridge, Mass., USA); phospho-Akt, total AMPK, and total Akt are from Cell Signaling Technology, Inc. (Danver Mass., USA); the BCA protein assay kit is from Thermo Scientific (Rockford, Ill., USA); and the ECL reagent kit is from GE Healthcare BioSciences (Buckinghamshire, UK). The secondary antibody antirabbit is from Jackson ImmunoResearch Laboratories, Inc. (West Grove, Pa., USA). The density blotting is analyzed using Alpha Easy FC software (Alpha Innotech Corp., Randburg, South Africa). Structural proteins GAPDH and β-actin are obtained by stripping the nitrocellulose membrane proteins of liver and skeletal muscle, respectively.

## CC(C)OC(=O)C(C)(C)Oc1ccc(C(=O)c2ccc(Cl)cc2)cc1 [Feno, fenofibrate, reference compound]
HFD-fed C57BL/6J mice [1]; 250 mg/kg/day
  Liver Lipids total lipid: 63.8 ± 4.7 mg/g
  Liver Lipids triacylglycerol: 48.4 ± 5.6 µmol/g
HFD-fed C57BL/6J mice [2]; 250 mg/kg/day
  average area of adipocytes (epididymal WAT): 4175.4±322.9 μm2
HFD-fed C57BL/6J mice [3]; 250 mg/kg/day
  Absolute Tissue Weight BAT: 0.142 ± 0.012 g
  Absolute Tissue Weight EWAT: 0.924 ± 0.069 g
  Absolute Tissue Weight Liver: 1.046 ± 0.033 g
  Absolute Tissue Weight MWAT: 0.295 ± 0.009 g
  Absolute Tissue Weight RWAT: 0.249 ± 0.028 g
  Absolute Tissue Weight Skeletal muscle: 0.569 ± 0.069 g
  weight gain: 0.69 ± 0.63 g
HFD-fed C57BL/6J mice [4]; 250 mg/kg/day
  decrease of the circulating TG level: 47.9%
  Blood Profiles FFA: 0.94 ± 0.08 meq/L
  Blood Profiles HDL-C: 80.3 ± 4.5 mg/dL
  Blood Profiles HbA1c: 6.4 ± 0.7 %
  Blood Profiles LDL-C: 105.8 ± 10.4 mg/dL

## CN(CCOc1ccc(CC2SC(=O)NC2=O)cc1)c1ccccn1 (stereo not drawn) [Rosi, rosiglitazone, reference compound]
HFD-fed C57BL/6J mice [1]; 10 mg/kg/day
  Liver Lipids total lipid: 65.1 ± 5.3 mg/g
  Liver Lipids triacylglycerol: 44.5 ± 3.2 µmol/g
HFD-fed C57BL/6J mice [2]; 10 mg/kg/day
  average area of adipocytes (epididymal WAT): 5598.6±162.7 μm2
HFD-fed C57BL/6J mice [3]; 10 mg/kg/day
  Absolute Tissue Weight BAT: 0.175 ± 0.018 g
  Absolute Tissue Weight EWAT: 0.813 ± 0.069 g
  Absolute Tissue Weight Liver: 0.816 ± 0.038 g
  Absolute Tissue Weight MWAT: 0.257 ± 0.019 g
  Absolute Tissue Weight RWAT: 0.244 ± 0.042 g
  Absolute Tissue Weight Skeletal muscle: 0.737 ± 0.094 g
  weight gain: 1.71 ± 0.56 g
HFD-fed C57BL/6J mice [4]; 10 mg/kg/day
  Blood Profiles FFA: 1.00 ± 0.09 meq/L
  Blood Profiles HDL-C: 73.1 ± 5.8 mg/dL
  Blood Profiles HbA1c: 6.2 ± 0.4 %
  Blood Profiles LDL-C: 86.7 ± 7.7 mg/dL
Membrane GLUT4
  enhancement of muscular membrane GLUT4 protein: ~2.1 fold
